Series [1] has as its system trigger point. In words: Efficacy and dosage study for intramuscular injection of phenoxybenzamine hydrochloride: subject-reported percent improvement from baseline. It counts as in vivo, human. On the procedure: A total of 326 male and female subjects, approximately 15 to 85 years old with pain of 4-72 month duration were treated with various doses of phenoxybenzamine. If a potential subject had pain that was clearly muscular and clearly not due to arthritis, nerve root compression or other extramuscular cause, the subject was considered a candidate for phenoxybenzamine hydrochloride injection. Trigger points were identified by palpation. A monopolar EMG needle was then inserted into the trigger point. Another monopolar EMG needle was inserted into a nearby nontender fibers of the same muscle. […] The treatment was repeated in up to 10-12 trigger points per treatment session. Subjects could return for up to 6 treatment sessions, depending on the extent of their pain. The initial treatment was with a dose of 25 mg of phenoxybenzamine hydrochloride in an injection volume of 2 ml. […] For 318 subjects, data were available for analysis for the doses of phenoxybenzamine hydrochloride used, efficacy and incidence of serious adverse events.
Subjects were asked to quantify, in terms of percent improvement from baseline, how they felt after treatment.

For series [2] the following is noted: cited from earlier work.

SMILES strings stand for the structures. Counter-ions that a name gives are not always drawn.

`CC(COc1ccccc1)N(CCCl)Cc1ccccc1` (centres unmarked) [Phenoxybenzamine Hydrochloride, phenoxybenzamine hydrochloride] yielded a Mean % improvement in series [1] (3 mg dose, Two month, 178 subjects (Interim data)) of 54.9%. The “% of Subjects with Greater than 25% Improvement” value in series [1] (10 mg dose, Four month, 84 subjects) is recorded as 63%; in series [1] (10 mg dose, One month, 84 subjects), 52%; in series [1] (10 mg dose, Three month, 84 subjects), 66%; in series [1] (10 mg dose, Two month, 84 subjects), 68%; in series [1] (25 mg dose, Four month, 16 subjects), 53%; in series [1] (25 mg dose, One month, 16 subjects) it was 57%. Moreover, the “% of Subjects with Greater than 25% Improvement” value came to 40% in series [1] (25 mg dose, One week, 16 subjects); 66% in series [1] (25 mg dose, Two month, 16 subjects); 100% in series [1] (10-12.5 mg dose, Four month, 8 subjects); 50% in series [1] (10-12.5 mg dose, One month, 8 subjects); 83% in series [1] (10-12.5 mg dose, Two month, 8 subjects). The “subjects reported no improvement in pain” value in series [1] (Example 1, after treatment) was “About 15%”. Besides, the “irritation at the site of the injection” value in series [2] was “irritation of the muscle at the site of the injection can occur”.

Source of the values: US20070249725A1, “Pharmaceutical formulations of sympathetic antagonist for the treatment of chronic muscle pain” (priority 2006, published 2007).
